Here are results for 33 compounds from ChEMBL document CHEMBL3112558 (Bioorg Med Chem Lett, 2014).

Some results are limits rather than exact numbers.

One series concerns the target Cytochrome P450 3A4 (Homo sapiens, UniProt P08684). Description: Inhibition of human CYP3A4-mdiated midazolam 1'-hydroxylase activity.
For a further series, the target named is Protease (Human immunodeficiency virus 1, UniProt Q9YQ12). Description: Inhibition of HIV-1 protease.
Series [1] has as its system Human immunodeficiency virus 1. Description: Antiviral activity against HIV1 by cell based assay. In kind it is functional, organism-based.
Another series concerns the target CYP3A4 (Homo sapiens, UniProt P08684). Briefly: Ratio of compound IC50 to ritonavir IC50 for human CYP3A4-mdiated midazolam 1'-hydroxylase activity. The conditions noted are these: probe midazolam, read-out: Ratio IC50. The class given is ADME.
For another series, the target named is Cytochrome P450 2C19 (Homo sapiens, UniProt P33261). Briefly: Inhibition of human CYP2C19.
Sequence of Cytochrome P450 2C19 (P33261 whole entry): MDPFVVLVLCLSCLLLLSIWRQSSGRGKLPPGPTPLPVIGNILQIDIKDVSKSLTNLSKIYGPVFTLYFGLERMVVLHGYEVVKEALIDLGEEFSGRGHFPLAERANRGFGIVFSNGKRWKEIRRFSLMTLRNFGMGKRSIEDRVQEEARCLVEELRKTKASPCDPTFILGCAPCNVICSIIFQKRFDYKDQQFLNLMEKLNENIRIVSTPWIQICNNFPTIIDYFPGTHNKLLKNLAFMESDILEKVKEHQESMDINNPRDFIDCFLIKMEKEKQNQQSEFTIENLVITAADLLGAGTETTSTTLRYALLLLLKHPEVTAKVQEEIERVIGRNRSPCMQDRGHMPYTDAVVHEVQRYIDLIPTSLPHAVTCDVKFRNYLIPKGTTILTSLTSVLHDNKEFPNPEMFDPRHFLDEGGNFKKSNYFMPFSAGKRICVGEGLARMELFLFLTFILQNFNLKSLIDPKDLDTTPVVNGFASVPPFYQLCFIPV
A further series has as its target Cytochrome P450 2D6 (Homo sapiens, UniProt P10635). Briefly: Inhibition of human CYP2D6.
A further series has as its target T1, Cytochrome P450 1A2 (Homo sapiens, UniProt P05177).
T1 sequence (P05177 whole entry): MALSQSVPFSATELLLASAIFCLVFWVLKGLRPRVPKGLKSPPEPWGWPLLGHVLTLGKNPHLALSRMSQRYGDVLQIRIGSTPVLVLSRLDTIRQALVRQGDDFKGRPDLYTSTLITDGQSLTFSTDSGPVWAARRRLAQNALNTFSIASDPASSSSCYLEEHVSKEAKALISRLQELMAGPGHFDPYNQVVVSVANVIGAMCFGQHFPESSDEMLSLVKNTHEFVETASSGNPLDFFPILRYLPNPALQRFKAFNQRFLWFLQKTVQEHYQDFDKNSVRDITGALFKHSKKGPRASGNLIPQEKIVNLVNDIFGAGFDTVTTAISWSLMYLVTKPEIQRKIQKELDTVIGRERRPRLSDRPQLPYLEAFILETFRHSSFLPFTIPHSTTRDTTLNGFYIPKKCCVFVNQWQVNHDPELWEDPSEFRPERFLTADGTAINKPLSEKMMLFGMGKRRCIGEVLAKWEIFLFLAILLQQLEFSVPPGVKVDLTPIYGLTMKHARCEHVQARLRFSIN
Description: Inhibition of human CYP1A2.

The target of another series is Cytochrome P450 2C9 (Homo sapiens, UniProt P11712). Briefly: Inhibition of human CYP2C9.
Sequence of Cytochrome P450 2C9 (P11712 whole entry): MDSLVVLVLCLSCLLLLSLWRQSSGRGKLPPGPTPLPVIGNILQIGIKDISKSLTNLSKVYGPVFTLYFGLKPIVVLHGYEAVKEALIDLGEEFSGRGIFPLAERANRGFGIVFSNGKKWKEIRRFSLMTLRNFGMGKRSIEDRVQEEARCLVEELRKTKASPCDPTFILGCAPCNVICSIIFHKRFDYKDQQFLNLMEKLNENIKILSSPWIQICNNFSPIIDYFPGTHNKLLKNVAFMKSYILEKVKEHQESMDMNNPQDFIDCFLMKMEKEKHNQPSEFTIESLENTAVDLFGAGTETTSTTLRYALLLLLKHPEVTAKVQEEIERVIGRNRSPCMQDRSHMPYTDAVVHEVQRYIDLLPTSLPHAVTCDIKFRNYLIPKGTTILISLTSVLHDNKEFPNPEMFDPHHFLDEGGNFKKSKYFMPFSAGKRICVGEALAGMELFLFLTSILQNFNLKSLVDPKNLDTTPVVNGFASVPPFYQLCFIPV

Sequence of Cytochrome P450 2D6 (P10635 whole entry): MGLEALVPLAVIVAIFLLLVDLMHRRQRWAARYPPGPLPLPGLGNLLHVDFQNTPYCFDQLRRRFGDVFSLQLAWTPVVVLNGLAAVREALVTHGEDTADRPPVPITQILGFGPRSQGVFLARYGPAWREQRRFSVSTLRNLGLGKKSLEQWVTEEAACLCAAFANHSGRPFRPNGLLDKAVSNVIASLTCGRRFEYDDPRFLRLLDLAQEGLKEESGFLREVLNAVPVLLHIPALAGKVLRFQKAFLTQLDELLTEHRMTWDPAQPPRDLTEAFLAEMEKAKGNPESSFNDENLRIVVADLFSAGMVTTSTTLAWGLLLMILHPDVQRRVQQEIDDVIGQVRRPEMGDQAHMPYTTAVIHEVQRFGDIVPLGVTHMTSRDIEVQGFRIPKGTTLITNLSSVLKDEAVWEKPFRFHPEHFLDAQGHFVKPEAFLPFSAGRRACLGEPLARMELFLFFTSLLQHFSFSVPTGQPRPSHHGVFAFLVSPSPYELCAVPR
Sequence of Protease (Q9YQ12 whole entry): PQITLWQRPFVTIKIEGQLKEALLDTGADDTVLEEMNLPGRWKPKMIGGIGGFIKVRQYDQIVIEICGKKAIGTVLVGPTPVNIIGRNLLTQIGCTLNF
Sequence of Cytochrome P450 3A4 (P08684 whole entry): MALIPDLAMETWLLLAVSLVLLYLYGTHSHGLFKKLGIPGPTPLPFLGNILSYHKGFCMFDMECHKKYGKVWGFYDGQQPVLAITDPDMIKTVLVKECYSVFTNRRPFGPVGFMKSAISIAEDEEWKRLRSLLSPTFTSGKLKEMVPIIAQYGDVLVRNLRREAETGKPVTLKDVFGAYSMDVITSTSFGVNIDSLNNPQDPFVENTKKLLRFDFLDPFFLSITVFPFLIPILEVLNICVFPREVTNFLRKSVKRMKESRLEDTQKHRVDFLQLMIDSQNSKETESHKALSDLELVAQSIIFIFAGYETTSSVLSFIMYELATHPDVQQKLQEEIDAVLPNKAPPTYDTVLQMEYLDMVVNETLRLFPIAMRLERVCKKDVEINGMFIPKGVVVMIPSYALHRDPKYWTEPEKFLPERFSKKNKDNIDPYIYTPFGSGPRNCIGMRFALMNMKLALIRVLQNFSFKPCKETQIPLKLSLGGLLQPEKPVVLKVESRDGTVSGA
Sequence of CYP3A4 (P08684 whole entry): as above

For the compound `CC(C)c1nc(CN(C(=O)N[C@H](C(=O)N[C@H](CC[C@H](Cc2ccccc2)NC(=O)OCc2cncs2)Cc2ccccc2)C(C)C)C2CC2)cs1`, the values for the IC50 against Cytochrome P450 3A4 and on Protease were 0.21 µM and 0.55 µM, respectively. The compound further had an EC50 in series [1] of 0.75 µM.
In turn, `Cc1nc(CN(C)C(=O)N[C@H](C(=O)N[C@H](CC[C@H](Cc2ccccc2)NC(=O)OCc2cncs2)Cc2ccccc2)C(C)C)cs1` yielded a 50% inhibitory concentration (IC50) against Protease of 0.035 µM. The EC50 in series [1] is 0.4 µM.
For the compound `CC(C)[C@H](NC(=O)N(C)Cc1cscn1)C(=O)N[C@H](CC[C@H](Cc1ccccc1)NC(=O)OCc1cncs1)Cc1ccccc1`, the half-inhibitory concentration (IC50) against Cytochrome P450 3A4 amounted to 0.14 µM; against Protease, 0.242 µM. This compound showed an EC50 in series [1] of 0.8 µM.
Take `CC(C)[C@H](NC(=O)N(Cc1cscn1)C1CC1)C(=O)N[C@H](CC[C@H](Cc1ccccc1)NC(=O)OCc1cncs1)Cc1ccccc1`: the selectivity ratio at CYP3A4 is 80. Also, the 50% inhibitory concentration (IC50) was under 0.1 µM against Cytochrome P450 3A4 and 3.59 µM against Protease. In series [1], this compound showed a half-maximal effective concentration (EC50) of 4 µM.
Regarding `CC(C)[C@H](NC(=O)N(C)Cc1cncs1)C(=O)N[C@H](CC[C@H](Cc1ccccc1)NC(=O)OCc1cncs1)Cc1ccccc1`, the IC50 against Cytochrome P450 3A4 amounted to 0.08 µM; against Protease it was 0.386 µM. In series [1], this compound gave a 50% effective concentration (EC50) of 0.7 µM.
In the case of `CN(Cc1cncs1)C(=O)NCCC(=O)N[C@H](CC[C@H](Cc1ccccc1)NC(=O)OCc1cncs1)Cc1ccccc1`, the half-maximal inhibitory concentration (IC50) at Cytochrome P450 3A4 was found to be 0.13 µM. Besides, in series [1], the 50% effective concentration (EC50) was found to be 2.5 µM.
Compound `CC(C)c1nc(CN(C)C(=O)N[C@@H](CO)C(=O)N[C@H](CC[C@H](Cc2ccccc2)NC(=O)OCc2cncs2)Cc2ccccc2)cs1` came in with a concentration for half-maximal inhibition (IC50) against Protease of 0.05 µM. The EC50 in series [1] worked out at 1.5 µM.
Regarding `CC(C)c1nc(CN(C(=O)N[C@@H](CO)C(=O)N[C@H](CC[C@H](Cc2ccccc2)NC(=O)OCc2cncs2)Cc2ccccc2)C2CC2)cs1`, on Protease, the concentration for half-maximal inhibition (IC50) is 1.41 µM. In series [1], this compound gave an EC50 of 2.5 µM.
The compound `CN(Cc1cncs1)C(=O)N[C@@H](CO)C(=O)N[C@H](CC[C@H](Cc1ccccc1)NC(=O)OCc1cncs1)Cc1ccccc1` yielded a half-maximal inhibitory concentration (IC50) at Protease of 4.3 µM. In series [1], the EC50 came to 12 µM.
Taken in the same sequence, the figures for `O=C(N[C@H](CC[C@H](Cc1ccccc1)NC(=O)[C@H](CO)NC(=O)N(Cc1cncs1)C1CC1)Cc1ccccc1)OCc1cncs1` were 19.3 µM and 20 µM.
For the compound `COC[C@H](NC(=O)N(C)Cc1csc(C(C)C)n1)C(=O)N[C@H](CC[C@H](Cc1ccccc1)NC(=O)OCc1cncs1)Cc1ccccc1`, a half-maximal effect in series [1] (EC50) was put at 0.65 µM.
Turning to `CC(C)c1nc(CN(C)C(=O)N[C@@H](COCc2ccccc2)C(=O)N[C@H](CC[C@H](Cc2ccccc2)NC(=O)OCc2cncs2)Cc2ccccc2)cs1`, at Protease, the IC50 is 11.8 µM. In addition, the EC50 in series [1] is over 30 µM.
`CC(C)c1nc(CN(C)C(=O)N[C@@H](CC(=O)O)C(=O)N[C@H](CC[C@H](Cc2ccccc2)NC(=O)OCc2cncs2)Cc2ccccc2)cs1` showed an IC50 on Protease of 0.01 µM. The same compound showed a concentration giving a half-maximal response (EC50) in series [1] of 10 µM.
Compound `CC(C)c1nc(CN(C)C(=O)N[C@@H](CC(N)=O)C(=O)N[C@H](CC[C@H](Cc2ccccc2)NC(=O)OCc2cncs2)Cc2ccccc2)cs1` registered an IC50 on Protease of 0.143 µM. For the same compound, the concentration for a half-maximal effect (EC50) in series [1] was determined as 1 µM.
In series [1], `CC(C)c1nc(CN(C)C(=O)NC(CN(C)C)C(=O)N[C@H](CC[C@H](Cc2ccccc2)NC(=O)OCc2cncs2)Cc2ccccc2)cs1` (some centres not stated) had an EC50 of 3 µM.
On Protease, `CC(C)c1nc(CN(C)C(=O)N[C@@H](CCO)C(=O)N[C@H](CC[C@H](Cc2ccccc2)NC(=O)OCc2cncs2)Cc2ccccc2)cs1` had an IC50 of 0.039 µM. For the same compound, it took 2.7 µM to reach a half-maximal effect in series [1] (EC50).
As for `CC(C)c1nc(CN(C)C(=O)N[C@@H](CCN)C(=O)N[C@H](CC[C@H](Cc2ccccc2)NC(=O)OCc2cncs2)Cc2ccccc2)cs1`, the 50% inhibitory concentration (IC50) on Protease is over 30 µM; against Cytochrome P450 2C19, over 25 µM; against Cytochrome P450 2D6, 0.8 µM; on Cytochrome P450 1A2, over 25 µM; against Cytochrome P450 2C9, over 25 µM. In series [1], this compound yielded an EC50 of over 30 µM.
`CNCC[C@H](NC(=O)N(C)Cc1csc(C(C)C)n1)C(=O)N[C@H](CC[C@H](Cc1ccccc1)NC(=O)OCc1cncs1)Cc1ccccc1` yielded an IC50 at Protease of over 30 µM. The compound further showed an EC50 in series [1] of over 30 µM.
On Protease, `CC(C)c1nc(CN(C)C(=O)N[C@@H](CCN(C)C)C(=O)N[C@H](CC[C@H](Cc2ccccc2)NC(=O)OCc2cncs2)Cc2ccccc2)cs1` showed a half-maximal inhibitory concentration (IC50) of over 30 µM. This compound also registered an EC50 in series [1] of 20 µM.
Turning to `CC(C)c1nc(CN(C)C(=O)N[C@H](CCN2CCOCC2)C(=O)N[C@H](CC[C@H](Cc2ccccc2)NC(=O)OCc2cncs2)Cc2ccccc2)cs1`, the IC50 on Protease is over 30 µM; against Cytochrome P450 2C19, 1.3 µM; at Cytochrome P450 2D6, 3.1 µM; against Cytochrome P450 1A2 it was over 25 µM. The half-maximal effective concentration (EC50) in series [1] was over 30 µM.
`CC(C)c1nc(CN(C)C(=O)N[C@@H](CCCCN)C(=O)N[C@H](CC[C@H](Cc2ccccc2)NC(=O)OCc2cncs2)Cc2ccccc2)cs1` came in with an IC50 against Protease of over 30 µM. Besides, the 50% effective concentration (EC50) in series [1] is over 30 µM.
Take `CC(=O)NCC[C@H](NC(=O)N(C)Cc1csc(C(C)C)n1)C(=O)N[C@H](CC[C@H](Cc1ccccc1)NC(=O)OCc1cncs1)Cc1ccccc1`: half-maximal inhibition on Protease (IC50) required 2 µM. For the same compound, a half-maximal effect in series [1] (EC50) was put at 18 µM.
In turn, `CC(C)c1nc(CN(C)C(=O)N[C@@H](CCNS(C)(=O)=O)C(=O)N[C@H](CC[C@H](Cc2ccccc2)NC(=O)OCc2cncs2)Cc2ccccc2)cs1` returned a half-inhibitory concentration (IC50) on Protease of 8 µM. The compound further displayed an EC50 in series [1] of over 30 µM.
As to `CC(C)c1nc(CN(C)C(=O)N[C@@H](Cc2c[nH]cn2)C(=O)N[C@H](CC[C@H](Cc2ccccc2)NC(=O)OCc2cncs2)Cc2ccccc2)cs1`, on Protease, the IC50 was found to be 3 µM. In series [1], the EC50 is over 10 µM.
For `CC(C)c1nc(CN(C)C(=O)N[C@@H](Cc2cn(C)cn2)C(=O)N[C@H](CC[C@H](Cc2ccccc2)NC(=O)OCc2cncs2)Cc2ccccc2)cs1`, at Protease, the IC50 was over 30 µM. Moreover, the half-maximal effective concentration (EC50) in series [1] was over 30 µM.
In the case of `CC(C)c1nc(CN(C)C(=O)N[C@@H](Cn2cccn2)C(=O)N[C@H](CC[C@H](Cc2ccccc2)NC(=O)OCc2cncs2)Cc2ccccc2)cs1`, 0.03 µM corresponded to half-maximal inhibition against Protease (IC50). Besides, the response in series [1] was half-maximal at 5 µM (EC50).
In turn, `CC(C)c1nc(CN(C)C(=O)N[C@@H](CO)C(=O)N[C@@H](CC[C@@H](Cc2ccccc2)NC(=O)OCc2cncs2)Cc2ccccc2)cs1` gave a half-maximal inhibitory concentration (IC50) at Protease of over 30 µM. Moreover, the EC50 in series [1] was over 30 µM.
Take `CC(=O)NCC[C@H](NC(=O)N(C)Cc1csc(C(C)C)n1)C(=O)N[C@@H](CC[C@@H](Cc1ccccc1)NC(=O)OCc1cncs1)Cc1ccccc1`: the IC50 was over 30 µM at Protease; over 25 µM on Cytochrome P450 2C19; 0.8 µM against Cytochrome P450 2D6; over 25 µM against Cytochrome P450 1A2; 15.5 µM against Cytochrome P450 2C9. The concentration giving a half-maximal response (EC50) in series [1] was over 30 µM.
Consider `CC(C)[C@H](NC(=O)N(C)Cc1cscn1)C(=O)N[C@@H](CC[C@@H](Cc1ccccc1)NC(=O)OCc1cncs1)Cc1ccccc1`, for which the 50% inhibitory concentration (IC50) was 0.12 µM on Cytochrome P450 3A4 and over 30 µM on Protease. Also, in series [1], the EC50 was over 30 µM.
The compound `O=C(N[C@@H](CC[C@@H](Cc1ccccc1)NC(=O)[C@H](CO)NC(=O)N(Cc1cncs1)C1CC1)Cc1ccccc1)OCc1cncs1` had an IC50 against Protease of over 30 µM. The same compound had an EC50 in series [1] of over 30 µM.
Take `CC(C)c1nc(CN(C)C(=O)N[C@@H](Cc2cnc[nH]2)C(=O)N[C@@H](CC[C@@H](Cc2ccccc2)NC(=O)OCc2cncs2)Cc2ccccc2)cs1`: the IC50 on Protease was over 30 µM; on Cytochrome P450 2C19, 2.2 µM; on Cytochrome P450 2D6, 0.4 µM; on Cytochrome P450 1A2 it was 15 µM; against Cytochrome P450 2C9, 4.7 µM. Also, the half-maximal effective concentration (EC50) in series [1] is over 30 µM.
For `CC(C)c1nc(CN(C)C(=O)N[C@@H](CCN2CCOCC2)C(=O)N[C@H](CC[C@H](Cc2ccccc2)NC(=O)OCc2cncs2)Cc2ccccc2)cs1` [COBICISTAT], the 50% inhibitory concentration (IC50) at Protease was over 30 µM; against Cytochrome P450 2C19, over 25 µM; against Cytochrome P450 2D6 it was 9.2 µM; on Cytochrome P450 1A2, over 25 µM. The compound further showed an EC50 in series [1] of over 30 µM.
In turn, `CC(C)c1nc(CN(C)C(=O)N[C@H](C(=O)N[C@@H](Cc2ccccc2)C[C@H](O)[C@H](Cc2ccccc2)NC(=O)OCc2cncs2)C(C)C)cs1` [RITONAVIR] yielded an EC50 in series [1] of 0.05 µM.
